One assay deals with human plasma kallikrein (Homo sapiens, UniProt P03952). The assay is described as follows: Kallikrein inhibition assay utilizing a quenched AMC peptide substrate (FLINT). The following applies: 11-point, 3-fold serial dilution, top 1 μM; 30 min preincubation; 2 nM kallikrein; 50 μM Z-Gly-Pro-Arg-AMC; kinetic reads over 30 min. Type of assay: biochemical. In short, it runs like this: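 Human plasma kallikrein (2 nM final) was pre-incubated 30 min at room temperature with compound (11-point 3-fold series, top 1 μM, 2% DMSO) in Tris pH 7.5, NaCl, CaCl2, BSA, CHAPS buffer. Reaction started with 50 μM Z-Gly-Pro-Arg-AMC (KM 40 μM), and fluorescence (340/440 nm) was read kinetically over 30 min. IC50 came from a 4-parameter logistic fit.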
Sequence of human plasma kallikrein (P03952 391-638 limits assumed): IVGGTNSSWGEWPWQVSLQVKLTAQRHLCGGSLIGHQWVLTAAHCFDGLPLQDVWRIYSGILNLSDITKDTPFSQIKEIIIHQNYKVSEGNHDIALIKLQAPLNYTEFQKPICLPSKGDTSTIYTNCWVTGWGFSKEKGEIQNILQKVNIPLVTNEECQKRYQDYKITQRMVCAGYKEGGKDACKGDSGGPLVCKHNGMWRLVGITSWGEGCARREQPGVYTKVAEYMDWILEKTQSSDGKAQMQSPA
Sequence of human plasma kallikrein (P03952 20-390 partner limits assumed): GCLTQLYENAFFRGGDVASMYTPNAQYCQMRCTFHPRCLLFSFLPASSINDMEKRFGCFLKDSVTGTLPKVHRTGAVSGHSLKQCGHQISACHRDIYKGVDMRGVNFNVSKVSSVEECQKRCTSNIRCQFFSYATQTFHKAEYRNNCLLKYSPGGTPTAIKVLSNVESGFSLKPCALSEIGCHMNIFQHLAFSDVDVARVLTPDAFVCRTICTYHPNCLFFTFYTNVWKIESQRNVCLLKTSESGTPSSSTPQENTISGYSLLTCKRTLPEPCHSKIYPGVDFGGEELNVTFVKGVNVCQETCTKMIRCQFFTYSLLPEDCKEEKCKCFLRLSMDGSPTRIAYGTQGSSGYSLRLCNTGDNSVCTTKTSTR

Another assay has as its target Factor XIa (Homo sapiens, UniProt P03951). The assay can be described thus: Factor XIa inhibition assay utilizing a fluorophore-quencher pair peptide substrate (FLINT). In kind it is biochemical. The following applies: 11-point, 3-fold serial dilution, top 100 nM; 30 min preincubation; 15 μM 5Fam-KLTRAETV-K5Tamra substrate; kinetic reads over 30 min; read-out: FXIa Inhibition IC50. In short, it runs like this:
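FXIa ([…]) preincubated 30 min with compound (11-point, 3-fold, top 100 nM, 2% DMSO) in Tris pH 7.5, NaCl, CaCl2, BSA, CHAPS; 15 μM 5Fam-KLTRAETV-K5Tamra substrate then added. Fluorescence (485/520 nm) read kinetically over 30 min at room temperature; IC50 by 4-parameter fit.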

Sequence of Factor XIa (P03951 388-625 limits assumed): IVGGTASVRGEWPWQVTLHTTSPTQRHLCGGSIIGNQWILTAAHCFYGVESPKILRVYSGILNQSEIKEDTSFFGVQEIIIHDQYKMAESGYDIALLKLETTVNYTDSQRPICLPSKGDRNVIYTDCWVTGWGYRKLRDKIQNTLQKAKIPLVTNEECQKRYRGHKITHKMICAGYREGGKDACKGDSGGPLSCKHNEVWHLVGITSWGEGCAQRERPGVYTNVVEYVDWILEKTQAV
Sequence of Factor XIa (P03951 19-387 partner limits assumed): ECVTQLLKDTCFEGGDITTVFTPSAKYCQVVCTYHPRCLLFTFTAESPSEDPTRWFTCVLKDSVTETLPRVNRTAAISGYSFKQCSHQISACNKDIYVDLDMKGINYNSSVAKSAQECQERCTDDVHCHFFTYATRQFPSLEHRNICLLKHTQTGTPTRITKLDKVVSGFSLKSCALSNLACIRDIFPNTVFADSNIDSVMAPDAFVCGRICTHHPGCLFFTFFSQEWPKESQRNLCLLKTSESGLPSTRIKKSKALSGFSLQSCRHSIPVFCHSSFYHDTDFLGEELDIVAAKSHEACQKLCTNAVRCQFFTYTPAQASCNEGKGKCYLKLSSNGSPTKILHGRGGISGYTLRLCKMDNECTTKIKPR

Turning to `O=C(Nc1ccc2nccc(O)c2c1)[C@@H]1CC[C@@H]2CC(c3c(-n4cnnn4)ccc(Cl)c3F)=CC(=O)N21` [ID No. 9, (3S,8aR)-7-(3-Chloro-2-fluoro-6-(1H-tetrazol-1-yl)phenyl)-N-(4-hydroxyquinolin-6-yl)-5-oxo-1,2,3,5,8,8a-hexahydroindolizine-3-carboxamide], the IC50 at human plasma kallikrein was determined as 0.0202 µM; at Factor XIa, 0.0166 µM.

With `O=C(Nc1ccc2ncc(F)cc2c1)[C@@H]1CC[C@@H]2CC(c3c(-n4cnnn4)ccc(Cl)c3F)=CC(=O)N21` [ID No. 10, (3S,8aR)-7-(3-Chloro-2-fluoro-6-(1H-tetrazol-1-yl)phenyl)-N-(3-fluoroquinolin-6-yl)-5-oxo-1,2,3,5,8,8a-hexahydroindolizine-3-carboxamide], the IC50 against human plasma kallikrein amounted to 0.0225 µM; on Factor XIa it was 0.0108 µM.

On to `CN(C)c1ccc2cc(NC(=O)[C@@H]3CC[C@@H]4CC(c5c(-n6cnnn6)ccc(Cl)c5F)=CC(=O)N43)ccc2n1` [ID No. 11, (3S,8aR)-7-(3-Chloro-2-fluoro-6-(1H-tetrazol-1-yl)phenyl)-N-(2-(dimethylamino)quinolin-6-yl)-5-oxo-1,2,3,5,8,8a-hexahydroindolizine-3-carboxamide], for which the IC50 at human plasma kallikrein came to 0.0662 µM; at Factor XIa, 0.0388 µM.

As for `O=C1Cc2cc(NC(=O)[C@@H]3CC[C@@H]4CC(c5c(-n6cnnn6)ccc(Cl)c5F)=CC(=O)N43)ccc2N1` [ID No. 12, (3S,8aR)-7-(3-Chloro-2-fluoro-6-(1H-tetrazol-1-yl)phenyl)-5-oxo-N-(2-oxoindolin-5-yl)-1,2,3,5,8,8a-hexahydroindolizine-3-carboxamide], the IC50 came to 0.0717 µM at human plasma kallikrein and 0.0182 µM at Factor XIa.

Take `O=C1CCc2cc(NC(=O)[C@@H]3CC[C@@H]4CC(c5c(-n6cnnn6)ccc(Cl)c5F)=CC(=O)N43)ccc2N1` [ID No. 13]: the results for the IC50 at human plasma kallikrein and on Factor XIa were 0.0684 µM and 0.0129 µM, respectively.

For the molecule `CCn1cnc2ccc(NC(=O)[C@@H]3CC[C@@H]4CC(c5c(-n6cnnn6)ccc(Cl)c5F)=CC(=O)N43)cc2c1=O` [ID No. 14, (3S,8aR)-7-(3-Chloro-2-fluoro-6-(1H-tetrazol-1-yl)phenyl)-N-(3-ethyl-4-oxo-3,4-dihydroquinazolin-6-yl)-5-oxo-1,2,3,5,8,8a-hexahydroindolizine-3-carboxamide], the IC50 against human plasma kallikrein worked out at 0.0596 µM; at Factor XIa, 0.0227 µM.

Take `O=C(Nc1ccc2c(c1)C(F)(F)C(=O)N2)[C@@H]1CC[C@@H]2CC(c3c(-n4cnnn4)ccc(Cl)c3F)=CC(=O)N21` [ID No. 15, (3S,8aR)-7-(3-Chloro-2-fluoro-6-(1H-tetrazol-1-yl)phenyl)-N-(3,3-difluoro-2-oxoindolin-5-yl)-5-oxo-1,2,3,5,8,8a-hexahydroindolizine-3-carboxamide]: the IC50 at human plasma kallikrein was found to be 0.0557 µM; on Factor XIa it was 0.0368 µM.

With `Cn1nc2ccc(NC(=O)[C@@H]3CC[C@@H]4CC(c5c(-n6cnnn6)ccc(Cl)c5F)=CC(=O)N43)cc2n1` [ID No. 16, (3S,8aR)-7-(3-Chloro-2-fluoro-6-(1H-tetrazol-1-yl)phenyl)-N-(2-methyl-2H-benzo[d][1,2,3]triazol-5-yl)-5-oxo-1,2,3,5,8,8a-hexahydroindolizine-3-carboxamide], the IC50 was found to be 0.0453 µM against human plasma kallikrein and 0.025 µM at Factor XIa.

With `O=C(Nc1ccc(-c2noc(=O)[nH]2)cc1)[C@@H]1CC[C@@H]2CC(c3c(-n4cnnn4)ccc(Cl)c3F)=CC(=O)N21` [ID No. 17, (3S,8aR)-7-(3-Chloro-2-fluoro-6-(1H-tetrazol-1-yl)phenyl)-5-oxo-N-(4-(5-oxo-4,5-dihydro-1,2,4-oxadiazol-3-yl)phenyl)-1,2,3,5,8,8a-hexahydroindolizine-3-carboxamide], the IC50 was 0.0601 µM on human plasma kallikrein and 0.0034 µM at Factor XIa.

With `O=C(Nc1ccc2nc[nH]c(=O)c2c1)[C@@H]1CC[C@@H]2CC(c3c(-n4cnnn4)ccc(Cl)c3F)=CC(=O)N21` [ID No. 18, (3S,8aR)-7-(3-Chloro-2-fluoro-6-(1H-tetrazol-1-yl)phenyl)-5-oxo-N-(4-oxo-3,4-dihydroquinazolin-6-yl)-1,2,3,5,8,8a-hexahydroindolizine-3-carboxamide], the IC50 against human plasma kallikrein was determined as 0.0092 µM; at Factor XIa it was 0.0061 µM.

For the molecule `Cn1cc2cc(NC(=O)[C@@H]3CC[C@@H]4CC(c5c(-n6cnnn6)ccc(Cl)c5F)=CC(=O)N43)ccc2n1` [ID No. 19, (3S,8aR)-7-(3-Chloro-2-fluoro-6-(1H-tetrazol-1-yl)phenyl)-N-(2-methyl-2H-indazol-5-yl)-5-oxo-1,2,3,5,8,8a-hexahydroindolizine-3-carboxamide], the IC50 against human plasma kallikrein was 0.169 µM; at Factor XIa, 0.0394 µM.

Regarding `Cc1nc(-c2ccc(NC(=O)[C@@H]3CC[C@@H]4CC(c5c(-n6cnnn6)ccc(Cl)c5F)=CC(=O)N43)cc2)co1` [ID No. 20, (3S,8aR)-7-(3-Chloro-2-fluoro-6-(1H-tetrazol-1-yl)phenyl)-N-(4-(2-methyloxazol-4-yl)phenyl)-5-oxo-1,2,3,5,8,8a-hexahydroindolizine-3-carboxamide], the IC50 at human plasma kallikrein came to 0.112 µM; at Factor XIa it was 0.0259 µM.

`O=C(Nc1ccc2[nH]nnc2c1)[C@@H]1CC[C@@H]2CC(c3c(-n4cnnn4)ccc(Cl)c3F)=CC(=O)N21` [ID No. 21, (3S,8aR)—N-(1H-Benzo[d][1,2,3]triazol-5-yl)-7-(3-chloro-2-fluoro-6-(1H-tetrazol-1-yl)phenyl)-5-oxo-1,2,3,5,8,8a-hexahydroindolizine-3-carboxamide]: the results for the IC50 against human plasma kallikrein and on Factor XIa were 0.0374 µM and 0.0091 µM, respectively.

`NC(=O)c1ccc(NC(=O)[C@@H]2CC[C@@H]3CC(c4c(-n5cc(C(F)(F)F)nn5)ccc(Cl)c4F)=CC(=O)N32)cc1F` [ID No. 24, (3S,8aR)—N-(4-Carbamoyl-3-fluorophenyl)-7-(3-chloro-2-fluoro-6-(4-(trifluoromethyl)-1H-1,2,3-triazol-1-yl)phenyl)-5-oxo-1,2,3,5,8,8a-hexahydroindolizine-3-carboxamide]: the figures for the IC50 against human plasma kallikrein and on Factor XIa were 0.0761 µM and 0.0382 µM, respectively.

As to `NC(=O)c1ccc(NC(=O)[C@@H]2CC[C@@H]3CC(c4cc(Cl)ccc4-n4cc(C(F)(F)F)nn4)=CC(=O)N32)cc1F` [ID No. 25, (3S,8aR)—N-(4-Carbamoyl-3-fluorophenyl)-7-(5-chloro-2-(4-(trifluoromethyl)-1H-1,2,3-triazol-1-yl)phenyl)-5-oxo-1,2,3,5,8,8a-hexahydroindolizine-3-carboxamide], the IC50 is 0.116 µM against human plasma kallikrein and 0.0281 µM at Factor XIa.

Turning to `CN(C)c1ccnc2ccc(NC(=O)C3CCC4CC(c5c(-n6cnnn6)ccc(Cl)c5F)=CC(=O)N43)cc12` (centres unmarked) [compound 87], the IC50 on human plasma kallikrein was found to be 0.0649 µM; at Factor XIa it was 0.0208 µM.

For the molecule `CN(C)c1ccnc2ccc(NC(=O)C3CCC4CC(c5c(-n6cc(Cl)nn6)ccc(Cl)c5F)=CC(=O)N43)cc12` (centres unmarked) [compound 88], the IC50 against human plasma kallikrein is 0.16 µM; on Factor XIa, over 0.05 µM.

For `CN(C)c1ccnc2ccc(NC(=O)C3CCC4CC(c5c(-n6cc(C(F)(F)F)nn6)ccc(Cl)c5F)=CC(=O)N43)cc12` (centres unmarked) [compound 89], the IC50 at human plasma kallikrein was 0.637 µM; on Factor XIa it was over 0.05 µM.

Take `[2H]c1nnnn1-c1ccc(Cl)c(F)c1C1=CC(=O)N2C(CCC2C(=O)Nc2ccc3c(c2)C2(CC2)C(=O)N3)C1` (centres unmarked) [compound 96]: the IC50 against human plasma kallikrein amounted to 0.128 µM; at Factor XIa, 0.0422 µM.

On to `CC1C(=O)Nc2c(NC(=O)[C@@H]3CC[C@@H]4CC(c5c(-n6cc(C(F)(F)F)nn6)ccc(Cl)c5F)=CC(=O)N43)cccc21` (some centres unmarked) [compound 102], for which the IC50 on human plasma kallikrein was 0.57 µM; at Factor XIa, over 0.05 µM.

Turning to `Cn1nc2ccc(NC(=O)C3CCC4CC(c5c(-n6cc(Cl)nn6)ccc(Cl)c5F)=CC(=O)N43)cc2n1` (centres unmarked) [compound 105], the values for the IC50 at human plasma kallikrein and on Factor XIa were 0.12 µM and over 0.05 µM, respectively.

For `Cn1nc2ccc(NC(=O)C3CCC4CC(c5c(-n6cc(C(F)(F)F)nn6)ccc(Cl)c5F)=CC(=O)N43)cc2n1` (centres unmarked) [compound 106], the figures for the IC50 at human plasma kallikrein and on Factor XIa were 0.497 µM and over 0.05 µM, respectively.

Broadly, the IC50 is the concentration that inhibits the measured activity by half.

The values are drawn from patent US12286429B2, “5-oxo-1,2,3,5,8,8a-hexahydroindolizine-3-carboxamide derivatives useful as a factor XIa inhibitors” (Janssen Pharmaceutica NV, priority 2021, dated 2025).
